Test results reported in ChEMBL document CHEMBL1817626, “The structure-activity relationship of urea derivatives as anti-tuberculosis agents” (Bioorg Med Chem, 2011).
pIC50: −log10 of the molar value. Converted amounts (≈) assume the structure as drawn.

Experiments:
[1] = biological target: T1, Hydrolase, alpha/beta hydrolase fold family (Mycobacterium tuberculosis) (UniProt O69638); test: Inhibition of Mycobacterium tuberculosis recombinant EphE expressed in Escherichia coli BL21 using CMNPC as substrate at 10 nM after 30 mins by fluorescent assay relative to control
T1 sequence (whole entry): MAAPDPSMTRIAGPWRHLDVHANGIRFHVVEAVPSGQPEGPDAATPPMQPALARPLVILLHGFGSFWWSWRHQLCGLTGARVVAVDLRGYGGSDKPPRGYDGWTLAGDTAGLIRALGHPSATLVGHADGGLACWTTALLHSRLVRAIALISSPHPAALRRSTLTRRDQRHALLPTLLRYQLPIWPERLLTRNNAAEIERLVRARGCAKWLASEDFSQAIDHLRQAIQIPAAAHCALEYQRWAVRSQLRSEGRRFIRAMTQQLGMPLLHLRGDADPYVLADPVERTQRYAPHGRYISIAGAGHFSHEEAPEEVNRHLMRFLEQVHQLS

[2] = biological target: T2, Bifunctional epoxide hydrolase 2 (Homo sapiens, UniProt P34913); test: Inhibition of human recombinant soluble epoxide hydrolase using CMNPC as substrate after 10 mins by fluorescent assay
T2 sequence (P34913 whole entry): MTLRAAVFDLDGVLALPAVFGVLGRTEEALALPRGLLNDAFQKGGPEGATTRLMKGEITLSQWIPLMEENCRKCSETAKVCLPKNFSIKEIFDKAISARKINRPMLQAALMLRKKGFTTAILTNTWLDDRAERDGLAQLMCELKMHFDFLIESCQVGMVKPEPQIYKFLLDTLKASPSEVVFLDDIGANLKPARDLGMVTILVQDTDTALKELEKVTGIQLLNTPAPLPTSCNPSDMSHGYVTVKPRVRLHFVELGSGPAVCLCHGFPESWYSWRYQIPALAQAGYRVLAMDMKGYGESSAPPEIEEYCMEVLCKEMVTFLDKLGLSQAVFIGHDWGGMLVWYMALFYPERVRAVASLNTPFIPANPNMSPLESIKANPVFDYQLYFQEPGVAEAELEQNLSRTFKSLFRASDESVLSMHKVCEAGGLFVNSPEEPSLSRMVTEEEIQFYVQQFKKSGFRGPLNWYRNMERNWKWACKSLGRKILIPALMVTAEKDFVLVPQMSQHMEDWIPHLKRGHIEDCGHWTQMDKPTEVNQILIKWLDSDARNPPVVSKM

[3] = tested on: Enterococcus faecium; test: Antibacterial activity against Enterococcus faecium; format: functional
[4] = tested on: Enterococcus faecalis; test: Antibacterial activity against Enterococcus faecalis; format: functional
[5] = tested on: Escherichia coli; test: Antibacterial activity against Escherichia coli […] TolC; format: functional
[6] = tested on: Escherichia coli; test: Antibacterial activity against Escherichia coli K12; format: functional; details: K-12
[7] = tested on: Pseudomonas aeruginosa; test: Antibacterial activity against Pseudomonas aeruginosa; format: functional
[8] = tested on: Klebsiella pneumoniae; test: Antibacterial activity against Klebsiella pneumoniae; format: functional
[9] = tested on: Vero; test: Cytotoxicity against african green monkey Vero cells after 72 hrs by MTT assay; format: cell-based; details: Chlorocebus sabaeus
[10] = biological target: T3, Epoxide hydrolase B (Mycobacterium tuberculosis) (UniProt P95276); test: Inhibition of Mycobacterium tuberculosis recombinant EphB expressed in Escherichia coli BL21 using CMNPC as substrate at 10 nM after 30 mins by fluorescent assay relative to control
T3 sequence (whole entry): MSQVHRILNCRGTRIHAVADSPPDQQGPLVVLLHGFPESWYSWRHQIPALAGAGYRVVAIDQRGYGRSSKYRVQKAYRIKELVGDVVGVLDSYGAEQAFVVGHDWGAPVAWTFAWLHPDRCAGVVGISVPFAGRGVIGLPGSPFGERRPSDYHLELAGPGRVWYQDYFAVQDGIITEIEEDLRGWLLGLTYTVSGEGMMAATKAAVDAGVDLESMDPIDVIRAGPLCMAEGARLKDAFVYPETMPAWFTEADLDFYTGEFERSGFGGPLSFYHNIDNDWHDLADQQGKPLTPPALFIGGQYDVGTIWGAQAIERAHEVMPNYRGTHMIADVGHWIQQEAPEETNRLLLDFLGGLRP

[11] = tested on: Bacillus anthracis; test: microbe, parasite or virus in culture
[12] = tested on: Mycolicibacterium smegmatis; test: microbe, parasite or virus in culture; details: str. MC2 155, 168 h
[13] = tested on: Staphylococcus aureus; test: Antibacterial activity against Staphylococcus aureus; format: functional
[14] = tested on: Mycobacterium tuberculosis; test: microbe, parasite or virus in culture; details: H37Rv, 168 h

O=C(Nc1ccc(F)c(F)c1F)NC1CCCCCCC1
inhibition [1]: 91.6% | pIC50 [2]: 9.40 | MIC [3]: > 200 µg/mL | MIC [4]: > 200 µg/mL | MIC [5]: 3.12 µg/mL (≈ 10.4 µM) | MIC [6]: > 200 µg/mL | MIC [7]: > 200 µg/mL | MIC [8]: > 200 µg/mL | IC50 [9]: 63.4 µg/mL (≈ 211 µM) | inhibition [10]: 95.7% | MIC [11]: > 200 µg/mL | MIC [12]: 0.8 µg/mL (≈ 2.66 µM)

N#Cc1ccc(NC(=O)NC2C3CC4CC(C3)CC2C4)cc1 (centres undefined)
inhibition [1]: 72.7% | pIC50 [2]: 8.96 | MIC [3]: > 200 µg/mL | MIC [4]: > 200 µg/mL | MIC [13]: > 200 µg/mL | MIC [7]: > 200 µg/mL | MIC [8]: > 200 µg/mL | IC50 [9]: 7.1 µg/mL (≈ 24 µM) | inhibition [10]: 9% | MIC [11]: 12.5 µg/mL (≈ 42.3 µM) | MIC [12]: 12.5 µg/mL (≈ 42.3 µM) | MIC [14]: 0.4 µg/mL (≈ 1.35 µM)

CC[C@@H](CO)NCCN[C@@H](CC)CO [ETHAMBUTOL]
MIC [14]: 0.01 µg/mL (≈ 0.0489 µM)

O=C(Nc1ccccc1)Nc1ccccc1
pIC50 [2]: 6.41

O=C(Nc1ccc(F)c(F)c1F)NC1C2CC3CC(C2)CC1C3 (centres undefined)
inhibition [1]: 71.4% | MIC [3]: > 200 µg/mL | MIC [4]: > 200 µg/mL | MIC [13]: > 200 µg/mL | MIC [5]: > 200 µg/mL | MIC [6]: > 200 µg/mL | MIC [7]: > 200 µg/mL | MIC [8]: > 200 µg/mL | MIC [11]: > 200 µg/mL

CCCCCCCNC(=O)Nc1cccc(C(F)(F)F)c1F
inhibition [1]: 46.8% | pIC50 [2]: 9.40 | MIC [3]: > 200 µg/mL | MIC [4]: > 200 µg/mL | MIC [13]: > 200 µg/mL | MIC [5]: > 200 µg/mL | MIC [6]: > 200 µg/mL | MIC [7]: > 200 µg/mL | MIC [8]: > 200 µg/mL | inhibition [10]: 5.5% | MIC [11]: > 200 µg/mL | MIC [12]: 100 µg/mL (≈ 312 µM) | MIC [14]: 3 µg/mL (≈ 9.37 µM)

CCCCCCCNC(=O)Nc1ccc(F)c(F)c1F
inhibition [1]: 92.8% | pIC50 [2]: 9.40 | MIC [3]: > 200 µg/mL | MIC [4]: > 200 µg/mL | MIC [5]: 6.25 µg/mL (≈ 21.7 µM) | MIC [6]: > 200 µg/mL | MIC [7]: > 200 µg/mL | MIC [8]: > 200 µg/mL | IC50 [9]: 130 µg/mL (≈ 450 µM) | inhibition [10]: 87.5% | MIC [11]: > 200 µg/mL | MIC [12]: > 200 µg/mL | MIC [14]: 6 µg/mL (≈ 20.8 µM)

CCOCCNC(=O)NC12CC3CC(CC(C3)C1)C2
inhibition [1]: 17.6% | pIC50 [2]: 6.28 | MIC [3]: > 200 µg/mL | MIC [4]: > 200 µg/mL | MIC [13]: > 200 µg/mL | MIC [5]: > 200 µg/mL | MIC [6]: > 200 µg/mL | MIC [7]: > 200 µg/mL | MIC [8]: > 200 µg/mL | inhibition [10]: 18.7% | MIC [11]: > 200 µg/mL | MIC [12]: > 200 µg/mL | MIC [14]: 50 µg/mL (≈ 188 µM)

CN(C(=O)N(C)C1C2CC3CC(C2)CC1C3)c1ccc(F)c(F)c1F (centres undefined)
inhibition [1]: 25.2% | pIC50 [2]: 5.74 | MIC [3]: > 200 µg/mL | MIC [4]: > 200 µg/mL | MIC [13]: > 200 µg/mL | MIC [5]: 12.5 µg/mL (≈ 35.5 µM) | MIC [6]: > 200 µg/mL | MIC [7]: > 200 µg/mL | MIC [8]: > 200 µg/mL | inhibition [10]: < 1% | MIC [11]: > 200 µg/mL | MIC [12]: 200 µg/mL (≈ 568 µM) | MIC [14]: 12 µg/mL (≈ 34.1 µM)

O=C(Nc1ccc(F)c(F)c1F)OC1C2CC3CC(C2)CC1C3 (centres undefined)
inhibition [1]: 21.4% | pIC50 [2]: 6.33 | MIC [3]: > 200 µg/mL | MIC [4]: > 200 µg/mL | MIC [13]: > 200 µg/mL | MIC [5]: 12.5 µg/mL (≈ 38.4 µM) | MIC [6]: > 200 µg/mL | MIC [7]: > 200 µg/mL | MIC [8]: > 200 µg/mL | inhibition [10]: 10.2% | MIC [11]: > 200 µg/mL | MIC [12]: 50 µg/mL (≈ 154 µM) | MIC [14]: 6 µg/mL (≈ 18.4 µM)

COc1ccc(NC(=O)NC2C3CC4CC(C3)CC2C4)cc1 (centres undefined)
inhibition [1]: 83.1% | pIC50 [2]: 7.84 | MIC [3]: > 200 µg/mL | MIC [4]: > 200 µg/mL | MIC [13]: > 200 µg/mL | MIC [7]: > 200 µg/mL | MIC [8]: > 200 µg/mL | IC50 [9]: 13.4 µg/mL (≈ 44.6 µM) | inhibition [10]: 95.1% | MIC [11]: > 200 µg/mL | MIC [12]: 100 µg/mL (≈ 333 µM) | MIC [14]: 0.4 µg/mL (≈ 1.33 µM)

Fc1ccc(NC(=S)NC2C3CC4CC(C3)CC2C4)c(F)c1F (centres undefined)
inhibition [1]: 35.5% | pIC50 [2]: 8.32 | MIC [3]: > 200 µg/mL | MIC [4]: > 200 µg/mL | MIC [13]: > 200 µg/mL | MIC [5]: 3.12 µg/mL (≈ 9.17 µM) | MIC [6]: > 200 µg/mL | MIC [7]: > 200 µg/mL | MIC [8]: > 200 µg/mL | inhibition [10]: 21.3% | MIC [11]: 3.12 µg/mL (≈ 9.17 µM) | MIC [14]: 0.8 µg/mL (≈ 2.35 µM)

CC(C)CCOc1ccc(NC(=O)Nc2ccc(OCCC(C)C)cc2)cc1
inhibition [1]: 88.8% | pIC50 [2]: 8.19 | MIC [3]: > 200 µg/mL | MIC [4]: > 200 µg/mL | MIC [13]: > 200 µg/mL | MIC [5]: 3.12 µg/mL (≈ 8.11 µM) | MIC [6]: > 200 µg/mL | MIC [7]: > 200 µg/mL | MIC [8]: > 200 µg/mL | inhibition [10]: 14.6% | MIC [11]: > 200 µg/mL | MIC [12]: > 200 µg/mL | MIC [14]: 200 µg/mL (≈ 520 µM)

CN(C(=O)NC1C2CC3CC(C2)CC1C3)c1ccc(F)c(F)c1F (centres undefined)
inhibition [1]: 22.8% | pIC50 [2]: 7.42 | MIC [3]: > 200 µg/mL | MIC [4]: > 200 µg/mL | MIC [13]: > 200 µg/mL | MIC [5]: 25 µg/mL (≈ 73.9 µM) | MIC [6]: > 200 µg/mL | MIC [7]: > 200 µg/mL | MIC [8]: > 200 µg/mL | inhibition [10]: 6.7% | MIC [11]: > 200 µg/mL | MIC [14]: 6 µg/mL (≈ 17.7 µM)

NNC(=O)c1ccncc1 [ISONIAZID]
MIC [14]: 0.01 µg/mL (≈ 0.0729 µM)

O=C(Nc1ccc(F)c(F)c1F)NC1CCCC1
inhibition [1]: 36% | pIC50 [2]: 7.25 | MIC [3]: > 200 µg/mL | MIC [4]: > 200 µg/mL | MIC [13]: > 200 µg/mL | MIC [5]: > 200 µg/mL | MIC [6]: > 200 µg/mL | MIC [7]: > 200 µg/mL | MIC [8]: > 200 µg/mL | inhibition [10]: 86.4% | MIC [11]: > 200 µg/mL | MIC [12]: 200 µg/mL (≈ 774 µM) | MIC [14]: 50 µg/mL (≈ 194 µM)

O=C(Nc1ccc(F)c(F)c1F)NC12CC3CC(CC(C3)C1)C2
inhibition [1]: 92.2% | MIC [3]: > 200 µg/mL | MIC [4]: > 200 µg/mL | MIC [5]: > 200 µg/mL | MIC [6]: > 200 µg/mL | MIC [7]: > 200 µg/mL | MIC [8]: > 200 µg/mL | IC50 [9]: 726 µg/mL (≈ 2240 µM) | inhibition [10]: 89.7% | MIC [11]: > 200 µg/mL | MIC [12]: > 200 µg/mL
